# pKd: −log10 of the molar value.
# Target: T1, Nitric oxide synthase oxygenase (Bacillus subtilis (strain 168), UniProt O34453)
# T1 sequence (O34453 whole entry): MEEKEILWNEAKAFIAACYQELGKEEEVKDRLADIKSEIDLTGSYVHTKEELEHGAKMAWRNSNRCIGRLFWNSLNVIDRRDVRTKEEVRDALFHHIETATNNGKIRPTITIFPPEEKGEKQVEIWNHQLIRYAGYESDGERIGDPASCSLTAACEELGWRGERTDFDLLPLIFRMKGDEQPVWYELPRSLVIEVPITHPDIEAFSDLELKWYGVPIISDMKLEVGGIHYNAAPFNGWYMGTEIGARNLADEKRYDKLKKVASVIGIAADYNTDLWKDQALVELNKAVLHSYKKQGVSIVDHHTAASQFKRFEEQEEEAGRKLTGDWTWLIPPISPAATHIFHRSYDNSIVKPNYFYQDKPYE
# Test: Imidazole Spin Shift Assay
row,SMILES,pKd
1,Cc1cc(N)nc(CCc2cc(C#N)cc(CCc3cc(C)cc(N)n3)c2)c1,5.35
2,Cc1cc(N)nc(CCc2ccc(CCCN)c(CCc3cc(C)cc(N)n3)c2)c1,5.06
3,N=C(Nc1cccc(CNC[C@@H]2CCCN2)c1)c1cccs1 [N-[3-({[(2S)-pyrrolidin-2-ylmethyl]amino}methyl)phenyl]thiophene-2-carboximidamide (20)],4.75
4,CNCCN(C)c1cccc(CCc2cc(C)cc(N)n2)c1 [4-methyl-6-[2-(3-{methyl[2-(methylamino)ethyl]amino}phenyl)ethyl]pyridin-2-amine (13)],4.30
5,"N=C(Nc1cccc(COC[C@@H]2C[C@H](OCc3cccc(NC(=N)c4cccs4)c3)CN2)c1)c1cccs1 [N-[3-({[(3S,5S)-5-({[3-(thiophene-2-imidamido)phenyl]methoxy}methyl)pyrrolidin-3-yl]oxy}methyl)phenyl]-2H-1λ⁴-thiophene-2-carboximidamide (25)]",4.96
6,"N=C(Nc1cccc(COC[C@H]2C[C@H](OCc3cccc(NC(=N)c4cccs4)c3)CN2)c1)c1cccs1 [N-[3-({[(3S,5R)-5-({[3-(thiophene-2-imidamido)phenyl]methoxy}methyl)pyrrolidin-3-yl]oxy}methyl)phenyl]-2H-1λ⁴-thiophene-2-carboximidamide (28)]",5.11
7,CNCCN(c1cc(F)cc(CCc2cc(C)cc(N)n2)c1)C1CC1 [6-[2-(3-{cyclopropyl[2-(methylamino)ethyl]amino}-5-fluorophenyl)ethyl]-4-methylpyridin-2-amine (18)],4.21
8,N=C(Nc1cccc(CCc2cccc(NC(=N)c3cccs3)c2)c1)c1cccs1 [N-(3-{2-[3-(thiophene-2-imidamido)phenyl]ethyl}phenyl)thiophene-2-carboximidamide (19)],4.00

# The remaining compounds from weak to strong by pKd, led by results:
row,pKd,SMILES
1,3.90,NC(=Nc1cccc(OCCOc2cccc(N=C(N)c3cccs3)c2)c1)c1cccs1 [N-(3-{2-[3-(thiophene-2-imidamido)phenoxy]ethoxy}phenyl)thiophene-2-carboximidamide (26)]
2,4.24,CNCCN(C)c1cncc(CCc2cc(C)cc(N)n2)c1 [4-methyl-6-[2-(5-{methyl[2-(methylamino)ethyl]amino}pyridin-3-yl)ethyl]pyridin-2-amine (14)]
3,4.59,Cc1cc(N)nc(CCc2cccc([C@H](N)Cc3cc(C)cc(N)n3)c2)c1
4,5.30,Cc1cc(N)nc(CCc2cncc(CCc3cc(C)nc(N)c3)c2)c1 [6-(2-{5-[2-(2-amino-6-methylpyridin-4-yl)ethyl]pyridin-3-yl}ethyl)-4-methylpyridin-2-amine]
